# In US20240376085A1 (Janssen Pharmaceutica NV, priority 2021, published 2024):
# Columns and labels:
# [1] = tested on: IL-17A-induced G-CSF production in human normal keratinocyte (NHK); test: NHK assay: IL-17A-induced G-CSF production in normal human keratinocytes; format: cell-based; conditions: Homo sapiens, Keratinocyte, 24 h, IL-17A 5 ng/mL, average if tested more than once
# In short: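 Stimulus rhIL-17A 5 ng/mL final, premixed 1 h rt with compound; adult NHK, 5% FBS, 0.2% DMSO. Viability by CellTiter-Glo vs DMSO.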
# IL-17A : IL-17RA binding = target: T1, IL-17A : IL-17RA binding (Homo sapiens, UniProt Q16552, K93Q); test: IL-17A(FLAG-tagged):IL-17RA(His-tagged) binding disruption Eu-HTRF assay, Protocol 1; conditions: FLAG-IL-17A 2.5 nM at 2x final concentration; average if tested more than once
# T1 construct: Name: IL-17A-Flag
# In short: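 IC50 came from a one-site competition fit of the acceptor/donor (665/620 nm) HTRF ratio. His-tagged IL-17RA, Eu-anti-FLAG and D2-anti-His were added after a 1 h rt compound preincubation with FLAG-tagged IL-17A dimer in PBS/0.01% Triton X-100, followed by 2 h at rt before reading.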
# T1 sequence (Q16552 with tags, fused parts or gaps K93Q): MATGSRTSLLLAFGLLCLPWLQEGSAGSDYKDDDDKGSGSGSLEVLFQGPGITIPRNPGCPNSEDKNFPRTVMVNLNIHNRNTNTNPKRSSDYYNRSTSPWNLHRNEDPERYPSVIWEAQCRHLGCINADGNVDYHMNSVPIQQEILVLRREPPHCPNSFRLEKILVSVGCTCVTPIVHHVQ
IC50 (IL-17A : IL-17RA binding),SMILES,IC50 [1]
> 0.1 µM,"C[C@@H](NC(=O)CCC(F)(F)F)c1ccc2nc([C@@H](NC(=O)c3cccc(C#N)c3)C3CCC(F)(F)CC3)[nH]c2c1 [Example 131, 3-Cyano-N—((S)-(4,4-difluorocyclohexyl)(6-((R)-1-(4,4,4-trifluorobutanamido)ethyl)-1H-benzo[d]imidazol-2-yl)methyl)benzamide]",> 0.1 µM
> 0.1 µM,"C[C@@H](NC(=O)CCC(F)(F)F)c1ccc2[nH]c([C@@H](NC(=O)[C@H]3C[C@@H]3C#N)C3CCC(F)(F)CC3)nc2c1 (relative stereo) [Example 103, trans-(1S*,2S*)-2-Cyano-N—((S)-(4,4-difluorocyclohexyl)(5-((R)-1-(4,4,4-trifluorobutanamido)ethyl)-1H-benzo[d]imidazol-2-yl)methyl)cyclopropane-1-carboxamide]",> 0.1 µM
> 0.1 µM,"C[C@H](NC(=O)CCC(F)(F)F)c1ccc2[nH]c([C@@H](NC(=O)c3ccnn3CCC(F)(F)F)C3CCC(F)(F)CC3)nc2c1 [Example 124, N—((S)-(4,4-Difluorocyclohexyl)(5-((S)-1-(4,4,4-trifluorobutanamido)ethyl)-1H-benzo[d]imidazol-2-yl)methyl)-1-(3,3,3-trifluoropropyl)-1H-pyrazole-5-carboxamide]",> 0.1 µM
< 0.05 µM,"CC(C)(OC[C@H](NC(=O)c1nonc1C1CC1)c1nc2cc([C@H](NC(=O)CC34CC(F)(C3)C4)C3CC3)ccc2[nH]1)C(F)(F)F [Example 166, 4-Cyclopropyl-N—((R)-1-(5-((R)-cyclopropyl(2-(3-fluorobicyclo[1.1.1]pentan-1-yl)acetamido)methyl)-1H-benzo[d]imidazol-2-yl)-2-((1,1,1-trifluoro-2-methylpropan-2-yl)oxy)ethyl)-1,2,5-oxadiazole-3-carboxamide]",< 0.05 µM
< 0.05 µM,"CCc1nonc1C(=O)NC(CC(C)(C)C(F)(F)F)c1nc2cc([C@@H](C)NC(=O)CCC(F)(F)F)ccc2[nH]1 (single isomer, unassigned) [Example 197, 4-Ethyl-N—((S*)-4,4,4-trifluoro-3,3-dimethyl-1-(5-((R)-1-(4,4,4-trifluorobutanamido)ethyl)-1H-benzo[d]imidazol-2-yl)butyl)-1,2,5-oxadiazole-3-carboxamide]",0.05 to 0.1 µM
> 0.1 µM,"C[C@@H](NC(=O)CCC(F)(F)F)c1ccc2[nH]c([C@@H](NC(=O)c3cn(CCCC(F)(F)F)nn3)C3CCC(F)(F)CC3)nc2c1 [Example 21, N—[(S)-(4,4-Difluorocyclohexyl)-[6-[(1R)-1-(4,4,4-trifluorobutanoylamino)ethyl]-1H-benzimidazol-2-yl]methyl]-1-(4,4,4-trifluorobutyl)triazole-4-carboxamide]",> 0.1 µM
> 0.1 µM,"C[C@@H](NC(=O)CCC(F)(F)F)c1ccc2[nH]c([C@@H](NC(=O)[C@@H]3C[C@H]3C#N)C3CCC(F)(F)CC3)nc2c1 (relative stereo) [Example 104, trans-(1R*,2R*)-2-Cyano-N—((S)-(4,4-difluorocyclohexyl)(5-((R)-1-(4,4,4-trifluorobutanamido)ethyl)-1H-benzo[d]imidazol-2-yl)methyl)cyclopropane-1-carboxamide]",> 0.1 µM
0.05 to 0.1 µM,"[2H]C([2H])([2H])n1nccc1C(=O)N[C@@H](COC(C)(C)C(F)(F)F)c1nc2cc([C@H](NC(=O)CC3CC(F)(F)C3)C3CC3)ccc2[nH]1 [Example 167, N—((R)-1-(5-((R)-Cyclopropyl(2-(3,3-difluorocyclobutyl)acetamido)methyl)-1H-benzo[d]imidazol-2-yl)-2-((1,1,1-trifluoro-2-methylpropan-2-yl)oxy)ethyl)-1-(methyl-d3)-1H-pyrazole-5-carboxamide]",0.05 to 0.1 µM
> 0.1 µM,"C[C@@H](NC(=O)CCC(F)(F)F)c1ccc2[nH]c([C@@H](NC(=O)c3cnn(CCC(F)(F)F)n3)C3CCC(F)(F)CC3)nc2c1 [Example 3, N—[(S)-(4,4-Difluorocyclohexyl)-[6-[(1R)-1-(4,4,4-trifluorobutanoylamino)ethyl]-1H-benzimidazol-2-yl]methyl]-2-(3,3,3-trifluoropropyl)triazole-4-carboxamide]",> 0.1 µM

# The next lines start with the compound.
SMILES,IC50 (IL-17A : IL-17RA binding),IC50 [1]
"C[C@@H](NC(=O)CCC(F)(F)F)c1ccc2[nH]c([C@@H](NC(=O)c3ncn(CCC(F)F)n3)C3CCC(F)(F)CC3)nc2c1 [Example 40, N—[(S)-(4,4-Difluorocyclohexyl)-[6-[(1R)-1-(4,4,4-trifluorobutanoylamino)ethyl]-1H-benzimidazol-2-yl]methyl]-1-(3,3-difluoropropyl)-1,2,4-triazole-3-carboxamide]",> 0.1 µM,> 0.1 µM
"C[C@@H](NC(=O)CCC(F)(F)F)c1ccc2[nH]c([C@@H](NC(=O)c3ncnn3CCC(F)(F)F)C3CCC(F)(F)CC3)nc2c1 [Example 220, N—((S)-(4,4-Difluorocyclohexyl)(5-((R)-1-(4,4,4-trifluorobutanamido)ethyl)-1H-benzo[d]imidazol-2-yl)methyl)-1-(3,3,3-trifluoropropyl)-1H-1,2,4-triazole-5-carboxamide]",0.05 to 0.1 µM,> 0.1 µM
"CC(C)n1nccc1C(=O)NC(CO[C@H](C)C(F)(F)F)c1nc2ccc([C@H](NC(=O)CC3CC(F)(F)C3)C3CC3)cc2[nH]1 (single isomer, unassigned) [Example 157, N—((R*)-1-(6-((R)-Cyclopropyl(2-(3,3-difluorocyclobutyl)acetamido)methyl)-1H-benzo[d]imidazol-2-yl)-2-(((R)-1,1,1-trifluoropropan-2-yl)oxy)ethyl)-1-isopropyl-1H-pyrazole-5-carboxamide]",< 0.05 µM,0.05 to 0.1 µM
"CC(C)c1ncsc1C(=O)N[C@H](c1nc2cc([C@@H](C)NC(=O)CCC(F)(F)F)ccc2[nH]1)C1CCC(F)(F)CC1 [Example 203, N—((S)-(4,4-Difluorocyclohexyl)(5-((R)-1-(4,4,4-trifluorobutanamido)ethyl)-1H-benzo[d]imidazol-2-yl)methyl)-4-isopropylthiazole-5-carboxamide]",> 0.1 µM,> 0.1 µM
"C[C@@H](NC(=O)CCC(F)(F)F)c1ccc2[nH]c([C@@H](NC(=O)c3ccn(CCC(F)(F)F)n3)C3CCC(F)(F)CC3)nc2c1 [Example 2, N—[(S)-(4,4-Difluorocyclohexyl)-[6-[(1R)-1-(4,4,4-trifluorobutanoylamino)ethyl]-1H-benzimidazol-2-yl]methyl]-1-(3,3,3-trifluoropropyl)pyrazole-3-carboxamide]",> 0.1 µM,> 0.1 µM
"CC(OCC(NC(=O)c1nonc1C1CC1)c1nc2ccc([C@H](NC(=O)CC3CC(F)(F)C3)C3CC3)cc2[nH]1)C(F)(F)F (single isomer, unassigned) [Example 153, 4-Cyclopropyl-N-((1R*)-1-(6-((R)-cyclopropyl(2-(3,3-difluorocyclobutyl)acetamido)methyl)-1H-benzo[d]imidazol-2-yl)-2-((1,1,1-trifluoropropan-2-yl)oxy)ethyl)-1,2,5-oxadiazole-3-carboxamide]",< 0.05 µM,> 0.1 µM
"C[C@@H](NC(=O)CCC(F)(F)F)c1ccc2[nH]c([C@@H](NC(=O)c3cnn(CC4CC(F)(F)C4(F)F)n3)C3CCC(F)(F)CC3)nc2c1 (stereo partly drawn) [Example 83, N—((S)-(4,4-Difluorocyclohexyl)(5-((R)-1-(4,4,4-trifluorobutanamido)ethyl)-1H-benzo[d]imidazol-2-yl)methyl)-2-((2,2,3,3-tetrafluorocyclobutyl)methyl)-2H-1,2,3-triazole-4-carboxamide]",> 0.1 µM,> 0.1 µM
